From PubChem BioAssay AID316 (DTP/NCI, 2004)
“And” between values parts separate entries of the source, which are not always exact repeats. Identical values can stand only once. Toxic doses and inconclusive results are not listed.

Test system: P1534 leukemia ip, CD2F1 mice, survival T/C
Test: NCI In Vivo Anticancer Drug Screen. Data for tumor model P1534 Leukemia (intraperitoneal) in CD2F1 (CDF1) mice
Conditions: endpoint: mean survival time, schedule: Q01DX010 (ip), higher = longer survival
Experimental: The antitumor activity of compounds was measured in mice bearing transplantable tumors. Survival or tumor size were measured and the results are expressed as the measurement made in the treated group (T) divided by the measurement made in the vehicle treated control group (C). The tumor model used in this assay is P1534 Leukemia (intraperitoneal) in CD2F1 (CDF1) mice

[1] = dose: 8.0 mg/kg/injection, vehicle: saline
[2] = dose: 16.0 mg/kg/injection, vehicle: saline
[3] = dose: 32.0 mg/kg/injection, vehicle: saline
[4] = dose: 64.0 mg/kg/injection, vehicle: saline
[5] = dose: 0.16 mg/kg/injection, vehicle: saline
[6] = dose: 0.25 mg/kg/injection, vehicle: saline
[7] = dose: 62.5 mg/kg/injection, vehicle: saline
[8] = dose: 125.0 mg/kg/injection, vehicle: saline
[9] = dose: 1.56 mg/kg/injection, vehicle: saline
[10] = dose: 3.13 mg/kg/injection, vehicle: saline

## N=[N+]=CC(=O)OCC(N)C(=O)O (stereo not given)
dose: 6.25 mg/kg/injection, vehicle: other
  T/C: 155 % of control
dose: 15.5 mg/kg/injection, vehicle: saline
  T/C: 119 % of control

## Nc1ncnc2[nH]ncc12
dose: 1.5 mg/kg/injection, vehicle: saline
  T/C: 100 % of control
dose: 3.0 mg/kg/injection, vehicle: saline
  T/C: 110 % of control and 100 % of control
dose: 6.0 mg/kg/injection, vehicle: saline
  T/C: 120 % of control and 100 % of control
dose: 12.0 mg/kg/injection, vehicle: saline
  T/C: 115 % of control and 95 % of control

## O=C(Nc1ccc(C2=NCCN2)cc1)c1cccc(C(=O)Nc2ccc(C3=NCCN3)cc2)c1
[1]
  T/C: 109 % of control
[2]
  T/C: 118 % of control
[3]
  T/C: 154 % of control
[4]
  T/C: 163 % of control and 168 % of control

## CC(=O)OC(C)(C)/C=C/C(=O)[C@](C)(O)[C@H]1[C@H](O)C[C@@]2(C)[C@@H]3CC=C4[C@@H](C[C@H](O)C(=O)C4(C)C)[C@]3(CO)C(=O)C[C@]12C
[5]
  T/C: 103 % of control
[6]
  T/C: 107 % of control
dose: 0.57 mg/kg/injection, vehicle: saline
  T/C: 103 % of control

## CN(/N=N/N(C)c1ccccc1)c1ccccc1
dose: 15.6 mg/kg/injection, vehicle: saline
  T/C: 115 % of control
dose: 31.3 mg/kg/injection, vehicle: saline
  T/C: 103 % of control
[7]
  T/C: 111 % of control
[8]
  T/C: 100 % of control

## NC(N)=NCCCC(N)C(=O)NCCCCCCNCCCCCCNC(=O)C(N)CCCN=C(N)N (stereo not given)
dose: 5.0 mg/kg/injection, vehicle: saline
  T/C: 107 % of control
dose: 10.0 mg/kg/injection, vehicle: saline
  T/C: 96 % of control
dose: 20.0 mg/kg/injection, vehicle: saline
  T/C: 100 % of control

## COc1ccc2c3c(c4cc(OC)c(OC)cc4c2c1)C[C@H]1CCCCN1C3
dose: 0.3 mg/kg/injection, vehicle: saline
  T/C: 100 % of control
dose: 0.5 mg/kg/injection, vehicle: saline
  T/C: 113 % of control

## O=CC1CO1 (stereo not given)
dose: 13.0 mg/kg/injection, vehicle: saline
  T/C: 107 % of control
dose: 19.0 mg/kg/injection, vehicle: saline
  T/C: 107 % of control
dose: 29.0 mg/kg/injection, vehicle: saline
  T/C: 111 % of control
dose: 29.0 mg/kg/injection, vehicle: steriod suspending solution
  T/C: 100 % of control
dose: 44.0 mg/kg/injection, vehicle: saline
  T/C: 100 % of control
dose: 44.0 mg/kg/injection, vehicle: steriod suspending solution
  T/C: 86 % of control

## CC(=O)OC(C)(C)/C=C/C(=O)[C@](C)(O)[C@H]1[C@H](O)C[C@@]2(C)[C@@H]3CC=C4[C@@H](C[C@H](O)C(=O)C4(C)C)[C@]3(C)C(=O)C[C@]12C
[5]
  T/C: 96 % of control
[6]
  T/C: 100 % of control
dose: 0.38 mg/kg/injection, vehicle: saline
  T/C: 103 % of control

## c1ccc(CNc2ncnc3[nH]ncc23)cc1
[1]
  T/C: 100 % of control
[2]
  T/C: 110 % of control
[3]
  T/C: 120 % of control and 90 % of control
[4]
  T/C: 105 % of control and 110 % of control

## C[C@@H](N)[C@@H](O)c1ccccc1
dose: 0.39 mg/kg/injection, vehicle: saline
  T/C: 103 % of control
dose: 0.78 mg/kg/injection, vehicle: saline
  T/C: 100 % of control
[9]
  T/C: 100 % of control
[10]
  T/C: 103 % of control

## NCCCCCCNCCCCCCN
[9]
  T/C: 100 % of control
[10]
  T/C: 100 % of control
dose: 6.25 mg/kg/injection, vehicle: saline
  T/C: 100 % of control
dose: 12.5 mg/kg/injection, vehicle: saline
  T/C: 92 % of control and 100 % of control

## CC(=O)c1ccc[nH]1
[7]
  T/C: 100 % of control
[8]
  T/C: 96 % of control
